Measured values: PMC8398766, “Do Small Molecules Activate the TrkB Receptor in the Same Manner as BDNF? Limitations of Published TrkB Low Molecular Agonists and Screening for Novel TrkB Orthosteric Agonists” (Pharmaceuticals, 2021)
Several values for one entry are separate records, joined by “and”; a condition that tells them apart may be missing. Equal entries are not always repeated.

Tests used:
Assay in all cases: BioPrint Profile Panel
Type in all cases: binding
SKCa channel = details: 10 μM; Antagonist; Ion Channel
Excerpt: (§1) The BioPrint® Profile Panel service offered by Eurofins Discovery (Poitiers, France) was chosen to perform selectivity analysis.

CCK2 (CCKB) = target: T1, CCK2 (CCKB) (Homo sapiens, UniProt P32239); details: Agonist, Receptor, read-out: % of specific inhibition
T1 construct: purchased Eurofins Discovery (Cerep) BioPrint Profile Panel
Excerpt: as §1

MC4 = target: T2, MC4 (Homo sapiens, UniProt P32245); details: Agonist, Receptor, read-out: % of specific inhibition
T2 construct: purchased Eurofins Discovery (Cerep) BioPrint Profile Panel
Excerpt: as §1

TNF-α = details: 10 μM; Agonist; Receptor
Excerpt: as §1

GABAB(1b) = target: T3, GABAB(1b) (Homo sapiens, UniProt Q9UBS5); details: Antagonist, Receptor, read-out: % of specific inhibition
T3 construct: purchased Eurofins Discovery (Cerep) BioPrint Profile Panel
Excerpt: as §1

CCK1 = target: T4, CCK1 (Homo sapiens, UniProt P32238); details: Agonist, Receptor, read-out: % of specific inhibition
T4 construct: purchased Eurofins Discovery (Cerep) BioPrint Profile Panel
Excerpt: as §1

Ca2+ channel = details: 10 μM, Antagonist, Ion Channel
Excerpt: as §1

µ (MOP) = target: T5, µ (MOP) (Homo sapiens, UniProt P35372); details: Agonist, Receptor, read-out: % of specific inhibition
T5 construct: purchased Eurofins Discovery (Cerep) BioPrint Profile Panel
Excerpt: as §1

CysLT1 (LTD4) = target: T6, CysLT1 (LTD4) (Homo sapiens, UniProt Q9Y271); details: Agonist, Receptor, read-out: % of specific inhibition
T6 construct: purchased Eurofins Discovery (Cerep) BioPrint Profile Panel
Excerpt: as §1

B2 = target: T7, B2 (Homo sapiens, UniProt P30411); details: Agonist, Receptor, read-out: % of specific inhibition
T7 construct: purchased Eurofins Discovery (Cerep) BioPrint Profile Panel
Excerpt: as §1

ETA = target: T8, ETA (Homo sapiens, UniProt P25101); details: Agonist, Receptor, read-out: % of specific inhibition
T8 construct: purchased Eurofins Discovery (Cerep) BioPrint Profile Panel
Excerpt: as §1

N neuronal α4β2 = target: T9, N neuronal α4β2 (Homo sapiens, UniProt P17787+P43681); details: Agonist, Receptor, read-out: % of specific inhibition
T9 construct: purchased Eurofins Discovery (Cerep) BioPrint Profile Panel
Excerpt: as §1

AT2 = target: T10, AT2 (Homo sapiens, UniProt P50052); details: Agonist, Receptor, read-out: % of specific inhibition
T10 construct: purchased Eurofins Discovery (Cerep) BioPrint Profile Panel
Excerpt: as §1

GR = target: T11, GR (Homo sapiens, UniProt P04150); details: Agonist, Receptor, read-out: % of specific inhibition
T11 construct: purchased Eurofins Discovery (Cerep) BioPrint Profile Panel
Excerpt: as §1

GABA transporter = details: 10 μM, Antagonist
Excerpt: as §1

NK1 = target: T12, NK1 (Homo sapiens, UniProt P25103); details: Agonist, Receptor, read-out: % of specific inhibition
T12 construct: purchased Eurofins Discovery (Cerep) BioPrint Profile Panel
Excerpt: as §1

BZD = details: 10 μM, Agonist, Ion Channel
Excerpt: as §1

NOP (ORL1) = target: T13, NOP (ORL1) (Homo sapiens, UniProt P41146); details: Agonist, Receptor, read-out: % of specific inhibition
T13 construct: purchased Eurofins Discovery (Cerep) BioPrint Profile Panel
Excerpt: as §1

α1A = target: T14, α1A (Homo sapiens, UniProt P35348); details: Antagonist, Receptor, read-out: % of specific inhibition
T14 construct: purchased Eurofins Discovery (Cerep) BioPrint Profile Panel
Excerpt: as §1

CB1 = target: T15, CB1 (Homo sapiens, UniProt P21554); details: Agonist, Receptor, read-out: % of specific inhibition
T15 construct: purchased Eurofins Discovery (Cerep) BioPrint Profile Panel
Excerpt: as §1

[1] = target: T16, norepinephrine transporter (Homo sapiens, UniProt P23975); details: Antagonist, read-out: % of specific inhibition
T16 construct: purchased Eurofins Discovery (Cerep) BioPrint Profile Panel
Excerpt: as §1

VPAC1 = target: T17, VPAC1 (Homo sapiens, UniProt P32241); details: Agonist, Receptor, read-out: % of specific inhibition
T17 construct: purchased Eurofins Discovery (Cerep) BioPrint Profile Panel
Excerpt: as §1

A2A = target: T18, A2A (Homo sapiens, UniProt P29274); details: Agonist, Receptor
T18 construct: purchased Eurofins Discovery (Cerep) BioPrint Profile Panel
Excerpt: as §1

PAF = target: T19, PAF (Homo sapiens, UniProt P25105); details: Agonist, Receptor, read-out: % of specific inhibition
T19 construct: purchased Eurofins Discovery (Cerep) BioPrint Profile Panel
Excerpt: as §1

MCH1 = target: T20, MCH1 (Homo sapiens, UniProt Q99705); details: Agonist, Receptor, read-out: % of specific inhibition
T20 construct: purchased Eurofins Discovery (Cerep) BioPrint Profile Panel
Excerpt: as §1

α2A = target: T21, α2A (Homo sapiens, UniProt P08913); details: Antagonist, Receptor, read-out: % of specific inhibition
T21 construct: purchased Eurofins Discovery (Cerep) BioPrint Profile Panel
Excerpt: as §1

AT1 = target: T22, AT1 (Homo sapiens, UniProt P30556); details: Antagonist, Receptor, read-out: % of specific inhibition
T22 construct: purchased Eurofins Discovery (Cerep) BioPrint Profile Panel
Excerpt: as §1

M4 = target: T23, M4 (Homo sapiens, UniProt P08173); details: Antagonist, Receptor, read-out: % of specific inhibition
T23 construct: purchased Eurofins Discovery (Cerep) BioPrint Profile Panel
Excerpt: as §1

kappa = details: 10 μM; Agonist; Receptor
Excerpt: as §1

[2] = tested on: Ca2+ channel (diltiazem site); details: 10 μM; Antagonist (diltiazem site); Ion Channel
Excerpt: as §1

CCR2 = target: T24, CCR2 (Homo sapiens, UniProt P41597); details: Agonist, Receptor, read-out: % of specific inhibition
T24 construct: purchased Eurofins Discovery (Cerep) BioPrint Profile Panel
Excerpt: as §1

NMDA = details: 10 μM; Antagonist; Ion Channel
Excerpt: as §1

dopamine transporter = target: T25, dopamine transporter (Homo sapiens, UniProt Q01959); details: Antagonist, read-out: % of specific inhibition
T25 construct: purchased Eurofins Discovery (Cerep) BioPrint Profile Panel
Excerpt: as §1

MC3 = target: T26, MC3 (Homo sapiens, UniProt P41968); details: Agonist, Receptor, read-out: % of specific inhibition
T26 construct: purchased Eurofins Discovery (Cerep) BioPrint Profile Panel
Excerpt: as §1

α2B = target: T27, α2B (Homo sapiens, UniProt P18089); details: Antagonist, Receptor, read-out: % of specific inhibition
T27 construct: purchased Eurofins Discovery (Cerep) BioPrint Profile Panel
Excerpt: as §1

ẟ(DOP) = target: T28, ẟ(DOP) (Homo sapiens, UniProt P41143); details: Agonist, Receptor, read-out: % of specific inhibition
T28 construct: purchased Eurofins Discovery (Cerep) BioPrint Profile Panel
Excerpt: as §1

AR = target: T29, AR (Homo sapiens, UniProt P10275, T878A); details: Agonist, Receptor, read-out: % of specific inhibition
T29 construct: purchased Eurofins Discovery (Cerep) BioPrint Profile Panel
Excerpt: as §1

sigma = details: 10 μM; Agonist; Receptor
Excerpt: as §1

5-HT4e = target: T30, 5-HT4e (Homo sapiens, UniProt Q13639); details: Antagonist, Receptor, read-out: % of specific inhibition
T30 construct: purchased Eurofins Discovery (Cerep) BioPrint Profile Panel
Excerpt: as §1

5-HT2C = target: T31, 5-HT2C (Homo sapiens, UniProt P28335); details: Agonist, Receptor, read-out: % of specific inhibition
T31 construct: purchased Eurofins Discovery (Cerep) BioPrint Profile Panel
Excerpt: as §1

5-HT1B = target: T32, 5-HT1B (Rattus norvegicus, UniProt P28564); details: Antagonist, Receptor, read-out: % of specific inhibition
T32 construct: purchased Eurofins Discovery (Cerep) BioPrint Profile Panel
Excerpt: as §1

BB3 = target: T33, BB3 (Homo sapiens, UniProt P32247); details: Agonist, Receptor, read-out: % of specific inhibition
T33 construct: purchased Eurofins Discovery (Cerep) BioPrint Profile Panel
Excerpt: as §1

β2 = target: T34, β2 (Homo sapiens, UniProt P07550); details: Antagonist, Receptor, read-out: % of specific inhibition
T34 construct: purchased Eurofins Discovery (Cerep) BioPrint Profile Panel
Excerpt: as §1

V2 = target: T35, V2 (Homo sapiens, UniProt P30518); details: Agonist, Receptor, read-out: % of specific inhibition
T35 construct: purchased Eurofins Discovery (Cerep) BioPrint Profile Panel
Excerpt: as §1

D3 = target: T36, D3 (Homo sapiens, UniProt P35462); details: Antagonist, Receptor, read-out: % of specific inhibition
T36 construct: purchased Eurofins Discovery (Cerep) BioPrint Profile Panel
Excerpt: as §1

T18 sequence (P29274 whole entry): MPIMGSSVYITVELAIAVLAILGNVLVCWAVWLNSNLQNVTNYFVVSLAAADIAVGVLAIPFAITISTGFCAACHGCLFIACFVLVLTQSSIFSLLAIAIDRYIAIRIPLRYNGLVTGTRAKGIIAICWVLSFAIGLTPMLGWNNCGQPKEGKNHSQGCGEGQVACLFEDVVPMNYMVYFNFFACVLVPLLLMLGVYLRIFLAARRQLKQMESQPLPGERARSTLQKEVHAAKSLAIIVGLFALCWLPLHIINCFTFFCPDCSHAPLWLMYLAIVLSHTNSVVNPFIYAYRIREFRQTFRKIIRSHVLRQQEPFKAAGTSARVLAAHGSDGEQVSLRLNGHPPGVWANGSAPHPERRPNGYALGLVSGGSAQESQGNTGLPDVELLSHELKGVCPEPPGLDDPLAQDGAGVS
T5 sequence (P35372 whole entry): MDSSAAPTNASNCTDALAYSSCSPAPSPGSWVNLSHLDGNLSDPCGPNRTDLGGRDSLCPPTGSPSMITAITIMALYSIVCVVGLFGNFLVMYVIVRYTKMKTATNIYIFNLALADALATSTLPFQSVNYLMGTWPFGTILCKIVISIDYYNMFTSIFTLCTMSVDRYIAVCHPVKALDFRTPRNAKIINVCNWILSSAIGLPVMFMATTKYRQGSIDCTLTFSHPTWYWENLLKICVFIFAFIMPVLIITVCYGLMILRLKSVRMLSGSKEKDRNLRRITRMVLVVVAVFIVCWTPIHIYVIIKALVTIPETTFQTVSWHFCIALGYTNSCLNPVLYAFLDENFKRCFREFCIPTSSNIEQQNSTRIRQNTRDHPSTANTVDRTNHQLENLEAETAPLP
T12 sequence (P25103 whole entry): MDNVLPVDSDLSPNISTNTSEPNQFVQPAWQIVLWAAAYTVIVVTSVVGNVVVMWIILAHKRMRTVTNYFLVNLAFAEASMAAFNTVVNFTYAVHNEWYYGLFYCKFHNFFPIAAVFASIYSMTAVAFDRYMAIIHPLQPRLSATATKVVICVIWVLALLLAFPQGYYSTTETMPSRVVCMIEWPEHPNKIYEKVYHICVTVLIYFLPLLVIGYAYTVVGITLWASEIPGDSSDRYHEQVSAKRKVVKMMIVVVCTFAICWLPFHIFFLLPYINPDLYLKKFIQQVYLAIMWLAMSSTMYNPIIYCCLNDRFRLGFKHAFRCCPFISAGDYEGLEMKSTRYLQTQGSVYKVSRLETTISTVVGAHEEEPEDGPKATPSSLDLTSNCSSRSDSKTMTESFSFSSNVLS
T3 sequence (Q9UBS5 1-844 isoform Q9UBS5-2): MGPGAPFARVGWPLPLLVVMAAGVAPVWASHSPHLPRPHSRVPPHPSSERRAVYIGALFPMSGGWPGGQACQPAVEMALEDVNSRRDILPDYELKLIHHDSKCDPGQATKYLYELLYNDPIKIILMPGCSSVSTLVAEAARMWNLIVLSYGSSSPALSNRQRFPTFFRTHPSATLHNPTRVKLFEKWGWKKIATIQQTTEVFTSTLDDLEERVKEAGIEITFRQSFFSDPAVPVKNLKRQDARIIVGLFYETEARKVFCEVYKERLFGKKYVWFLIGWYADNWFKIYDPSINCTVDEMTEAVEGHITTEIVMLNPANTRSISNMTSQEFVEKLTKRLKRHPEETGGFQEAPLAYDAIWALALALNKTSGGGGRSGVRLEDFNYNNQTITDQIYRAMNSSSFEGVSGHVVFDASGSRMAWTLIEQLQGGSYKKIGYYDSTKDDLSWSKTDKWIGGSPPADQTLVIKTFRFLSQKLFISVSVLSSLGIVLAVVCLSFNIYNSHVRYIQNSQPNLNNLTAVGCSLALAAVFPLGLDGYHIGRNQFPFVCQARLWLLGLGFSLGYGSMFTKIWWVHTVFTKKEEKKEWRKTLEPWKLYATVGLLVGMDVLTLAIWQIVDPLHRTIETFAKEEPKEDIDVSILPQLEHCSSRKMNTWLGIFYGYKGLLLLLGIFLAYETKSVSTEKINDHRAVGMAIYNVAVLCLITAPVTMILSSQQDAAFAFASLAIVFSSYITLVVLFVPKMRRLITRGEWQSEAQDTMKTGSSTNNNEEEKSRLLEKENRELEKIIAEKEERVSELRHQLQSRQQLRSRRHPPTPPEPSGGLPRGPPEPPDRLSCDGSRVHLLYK
T3 sequence (O75899 42-941 partner): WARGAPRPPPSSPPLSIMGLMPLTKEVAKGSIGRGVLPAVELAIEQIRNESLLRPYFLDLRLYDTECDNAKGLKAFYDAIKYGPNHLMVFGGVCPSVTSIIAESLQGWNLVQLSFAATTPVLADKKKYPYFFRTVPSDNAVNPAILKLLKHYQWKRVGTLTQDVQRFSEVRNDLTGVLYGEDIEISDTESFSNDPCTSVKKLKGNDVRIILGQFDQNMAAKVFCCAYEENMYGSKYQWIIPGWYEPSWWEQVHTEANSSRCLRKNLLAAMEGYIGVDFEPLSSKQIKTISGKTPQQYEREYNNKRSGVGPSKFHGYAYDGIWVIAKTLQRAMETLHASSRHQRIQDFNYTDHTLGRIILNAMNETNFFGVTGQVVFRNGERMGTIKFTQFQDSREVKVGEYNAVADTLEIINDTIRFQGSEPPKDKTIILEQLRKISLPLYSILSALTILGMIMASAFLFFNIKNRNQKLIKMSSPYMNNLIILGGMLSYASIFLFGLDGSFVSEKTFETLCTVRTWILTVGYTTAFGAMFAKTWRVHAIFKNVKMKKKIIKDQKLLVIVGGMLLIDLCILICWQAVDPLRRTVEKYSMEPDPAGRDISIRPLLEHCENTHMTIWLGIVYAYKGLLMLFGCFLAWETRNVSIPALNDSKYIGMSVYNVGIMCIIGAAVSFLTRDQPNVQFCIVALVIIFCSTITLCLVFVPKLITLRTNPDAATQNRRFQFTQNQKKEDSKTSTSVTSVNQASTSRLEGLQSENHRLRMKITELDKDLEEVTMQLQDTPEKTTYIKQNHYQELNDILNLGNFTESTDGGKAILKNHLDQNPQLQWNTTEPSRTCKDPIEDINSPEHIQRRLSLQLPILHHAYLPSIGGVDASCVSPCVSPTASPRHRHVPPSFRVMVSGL
T30 sequence (Q13639 1-378 isoform Q13639-5): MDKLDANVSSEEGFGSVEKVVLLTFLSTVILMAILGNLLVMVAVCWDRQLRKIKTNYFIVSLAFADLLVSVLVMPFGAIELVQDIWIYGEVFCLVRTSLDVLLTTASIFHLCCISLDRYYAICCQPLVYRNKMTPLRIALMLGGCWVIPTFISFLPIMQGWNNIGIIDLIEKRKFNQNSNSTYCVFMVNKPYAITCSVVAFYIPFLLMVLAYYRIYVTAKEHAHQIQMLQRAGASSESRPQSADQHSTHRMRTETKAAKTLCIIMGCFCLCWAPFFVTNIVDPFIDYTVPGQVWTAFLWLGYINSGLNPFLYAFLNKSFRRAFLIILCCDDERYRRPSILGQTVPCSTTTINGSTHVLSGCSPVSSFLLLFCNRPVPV
T24 sequence (P41597 whole entry): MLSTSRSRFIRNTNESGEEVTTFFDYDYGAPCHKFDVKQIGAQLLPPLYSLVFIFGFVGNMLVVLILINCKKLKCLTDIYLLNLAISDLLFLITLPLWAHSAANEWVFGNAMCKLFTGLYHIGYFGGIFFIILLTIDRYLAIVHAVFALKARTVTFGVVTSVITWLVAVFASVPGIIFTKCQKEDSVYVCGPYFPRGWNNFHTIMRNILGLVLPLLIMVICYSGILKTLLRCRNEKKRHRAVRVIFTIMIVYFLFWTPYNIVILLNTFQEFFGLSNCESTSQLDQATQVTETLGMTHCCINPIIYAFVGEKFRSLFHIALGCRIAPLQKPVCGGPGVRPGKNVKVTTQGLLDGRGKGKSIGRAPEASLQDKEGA
T31 sequence (P28335 33-458): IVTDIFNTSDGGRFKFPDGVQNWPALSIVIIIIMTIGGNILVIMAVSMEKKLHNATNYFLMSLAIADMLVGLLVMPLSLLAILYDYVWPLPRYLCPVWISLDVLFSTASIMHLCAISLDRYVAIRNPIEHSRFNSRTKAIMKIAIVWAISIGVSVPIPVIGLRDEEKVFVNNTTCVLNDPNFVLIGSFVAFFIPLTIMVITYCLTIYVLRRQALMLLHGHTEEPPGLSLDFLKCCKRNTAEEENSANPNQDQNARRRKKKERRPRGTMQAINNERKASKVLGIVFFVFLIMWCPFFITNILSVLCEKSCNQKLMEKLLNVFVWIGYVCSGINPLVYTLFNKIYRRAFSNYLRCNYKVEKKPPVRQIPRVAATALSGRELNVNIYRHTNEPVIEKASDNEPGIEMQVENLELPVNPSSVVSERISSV
T1 sequence (P32239 whole entry): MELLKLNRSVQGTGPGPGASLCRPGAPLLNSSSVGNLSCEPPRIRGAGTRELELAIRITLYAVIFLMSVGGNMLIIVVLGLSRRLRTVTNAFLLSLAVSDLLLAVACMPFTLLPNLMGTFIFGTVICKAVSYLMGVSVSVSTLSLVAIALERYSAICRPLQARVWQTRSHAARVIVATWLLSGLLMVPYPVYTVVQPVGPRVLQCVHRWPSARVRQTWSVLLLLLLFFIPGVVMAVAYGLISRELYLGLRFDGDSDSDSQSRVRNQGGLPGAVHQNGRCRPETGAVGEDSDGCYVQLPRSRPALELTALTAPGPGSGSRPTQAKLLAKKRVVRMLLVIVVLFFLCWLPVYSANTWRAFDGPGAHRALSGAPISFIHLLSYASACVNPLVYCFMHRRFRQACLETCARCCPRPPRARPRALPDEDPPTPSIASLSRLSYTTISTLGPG
T6 sequence (Q9Y271 whole entry): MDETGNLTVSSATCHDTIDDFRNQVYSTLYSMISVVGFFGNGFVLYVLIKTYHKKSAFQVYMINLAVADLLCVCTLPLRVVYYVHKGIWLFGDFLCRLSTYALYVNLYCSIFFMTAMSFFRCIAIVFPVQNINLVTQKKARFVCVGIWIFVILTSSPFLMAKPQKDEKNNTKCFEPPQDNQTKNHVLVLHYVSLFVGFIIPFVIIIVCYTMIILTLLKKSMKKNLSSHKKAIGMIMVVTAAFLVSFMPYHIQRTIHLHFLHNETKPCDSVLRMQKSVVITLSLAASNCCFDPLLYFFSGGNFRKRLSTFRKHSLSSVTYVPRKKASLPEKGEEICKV

Q: With O=c1cc(-c2ccccc2)oc2c(O)c(O)ccc12 [7,8-DHF, 7,8-dihydroxyflavone] as the molecule, how does the “% of specific inhibition” value (SKCa channel) read?
A: 4%

Q: What about the inhibition at 10 µM (CCK2 (CCKB)) of the same molecule?
A: 15%

Q: What about the inhibition at 10 µM (MC4) of the same molecule?
A: -5%

Q: What about the “% of specific inhibition” value (TNF-α) of the same molecule?
A: 2%

Q: And the inhibition at 10 µM (GABAB(1b))?
A: -5%

Q: And the inhibition at 10 µM (CCK1)?
A: 21%

Q: And the “% of specific inhibition” value (Ca2+ channel; first unspecified Ca2+ channel entry)?
A: -4%

Q: What about the “% of specific inhibition” value (Ca2+ channel; second unspecified Ca2+ channel entry) of the same molecule?
A: -6%

Q: What about the inhibition at 10 µM (µ (MOP)) of the same molecule?
A: -2%

Q: What about the inhibition at 10 µM (CysLT1 (LTD4)) of the same molecule?
A: -10%

Q: And the inhibition at 10 µM (B2)?
A: -6%

Q: And the inhibition at 10 µM (ETA)?
A: -10%

Q: And the inhibition at 10 µM (N neuronal α4β2)?
A: 5%

Q: And the inhibition at 10 µM (AT2)?
A: 6%

Q: What about the inhibition at 10 µM (GR) of the same molecule?
A: -1%

Q: And the “% of specific inhibition” value (GABA transporter)?
A: -2%

Q: And the inhibition at 10 µM (NK1)?
A: 11%

Q: What about the “% Inhibition of Control Specific Binding” value (BZD) of the same molecule?
A: 71% and 70.6%

Q: What about the inhibition at 10 µM (NOP (ORL1)) of the same molecule?
A: 11%

Q: What about the inhibition at 10 µM (α1A) of the same molecule?
A: 2%

Q: And the inhibition at 10 µM (CB1)?
A: 1%

Q: And the inhibition at 10 µM [1]?
A: -1%

Q: What about the inhibition at 10 µM (VPAC1) of the same molecule?
A: -13%

Q: What about the “% Inhibition of Control Specific Binding” value (A2A; 10 μM) of the same molecule?
A: 74.9%

Q: And the inhibition at 10 µM (A2A; read-out: % Inhibition of Control Specific Binding)?
A: 75%

Q: What about the inhibition at 10 µM (PAF) of the same molecule?
A: -20%

Q: What about the inhibition at 10 µM (MCH1) of the same molecule?
A: -12%

Q: What about the inhibition at 10 µM (α2A) of the same molecule?
A: -5%

Q: What about the inhibition at 10 µM (AT1) of the same molecule?
A: 24%

Q: And the inhibition at 10 µM (M4)?
A: -5%

Q: And the “% of specific inhibition” value (kappa)?
A: 3%

Q: And the “% of specific inhibition” value [2]?
A: -15%

Q: What about the inhibition at 10 µM (CCR2) of the same molecule?
A: 4%

Q: And the “% of specific inhibition” value (NMDA)?
A: 11%

Q: What about the inhibition at 10 µM (dopamine transporter) of the same molecule?
A: 4%

Q: And the inhibition at 10 µM (MC3)?
A: -5%

Q: What about the inhibition at 10 µM (α2B) of the same molecule?
A: -2%

Q: And the inhibition at 10 µM (ẟ(DOP))?
A: -5%

Q: And the inhibition at 10 µM (AR)?
A: 0%

Q: And the “% of specific inhibition” value (sigma)?
A: 3%

Q: And the inhibition at 10 µM (5-HT4e)?
A: -11%

Q: And the inhibition at 10 µM (5-HT2C)?
A: -4%

Q: What about the inhibition at 10 µM (5-HT1B) of the same molecule?
A: 3%

Q: What about the inhibition at 10 µM (BB3) of the same molecule?
A: 11%

Q: And the inhibition at 10 µM (β2)?
A: -5%

Q: What about the inhibition at 10 µM (V2) of the same molecule?
A: -2%

Q: What about the inhibition at 10 µM (D3) of the same molecule?
A: 2%
